This data set concerns gastrin production. Kind of data set: Side effects of continuous PPI administration (stomach weight ratio, gastrin-positive cells) and alleviation by lived No. 1088. Format: in vivo. As to conditions: PBS-administered mice, Omeprazole 200 μg subcutaneously every other day for 4 or 8 weeks, vs no PPI. How it is done: Six groups of mice were prepared, each containing five 4-week old GF-Balb/c male mice. Three of the groups were administered orally with a suspension prepared by suspending 1×10^9 CFU of lived No. 1088 in PBS, and the remaining three groups were administered orally with an equal volume of PBS.
When the mice reached 8 weeks of age, a treatment was started for one group of the No. 1088-administered mice and one group of the PBS-administered mice in which the mice were administered subcutaneously every other day with a solution prepared by dissolving 200 μg of the PPI Omeprazole (AstraZeneca Ltd.) in 200 μL of PBS (8 weeks of continuous PPI administration). […]
Upon reaching 16 weeks of age, the mice of each group were killed, and following measurement of the bodyweight, the stomach was extracted from each mouse, the stomach contents (feed and the like) were removed by washing with PBS, and the stomach weight was measured. […]
The stained tissue sections were subjected to observation and image capture using a fluorescence microscope BZ-9000. […]
Using the bodyweights and stomach weights measured upon extraction of the stomachs from the samples of each group, the ratio (%) of stomach weight to bodyweight was calculated for each group. […]

“Also recorded” adds a separate entry of the source.

Take `COc1ccc2[nH]c([S+]([O-])Cc3ncc(C)c(OC)c3C)nc2c1` (centres unmarked) [PPI, Omeprazole]: the “number of gastrin-producing cells” value was “increased; also recorded: significant increases” and the “stomach weight ratio (stomach weight to bodyweight)” value is recorded as “significant increases”.
